Test results published in US20190060325A1, “STABILIZED SOLID DOSAGE FORM” (SHIONOGI & CO., LTD., priority 2016, published 2019).

Experiment: Effect of excipients on suppression of related substance formation (compound (IV) alone or mixed with excipient, stored at 60° C. for two weeks, HPLC)
Type: physicochemical
Conditions: compound (IV) only; for Relative amount (%) of related substance C after storage of 60° C./2 W: 60° C. two weeks
Description: Effect of excipients on suppression of related substance formation was examined. The excipients were physically (dry) mixed or were wet-kneaded using purified water with the compound (IV) in designated ratios in Table 1. The wet-kneaded materials were dried at 60° C. with ventilation. The dried materials were subdivided in glass bottles and the bottles were capped. The capped samples were stored at 60° C. for two weeks and the effect on suppression of related substance formation was estimated by the increased amount of related substances.
The relative amounts of the related substances in a 25 mg tablet obtained in the following Examples were determined by HPLC under the following conditions.
Detector: Ultraviolet spectrophotometer (wavelength: 245 nm)
Column: Unison UK-C18, 3 μm, 4.6×100 mm (Imtakt)
Column temperature: 40° C. Solution A: 0.1% trifluoroacetic acid solution
Flow rate: About 1.0 mL/min
• Compound (IV): 9 to 10 min; • Related substance A: 20 to 21 min; • Related substance B: 21 to 22 min; • Related substance C: 22 to 23 min; • Related substance D: 28 to 29 min; • Related substance E: 36 to 37 min. Injection volume: 10 μL Analytical time: 45 min
Related substances of compound (IV) were calculated by the following equation.
As: Peak area of compound (IV) in a standard solution Ai: Peak area of individual related substance ΣAi: Sum of peak area of individual related substance

## C[C@@]1(c2cc(NC(=O)c3ccc(C#N)cn3)ccc2F)C=CSC(N)=N1 [compound (IV)]
milled, capped glass bottle, % peak area of HPLC
  Relative amount (%) of related substance C after storage of 60° C./2 W: 0.19%
milled, before storage
  Relative amount (%) of related substance C, Initial: (Initial: 0.05%)
wet-kneaded
  Relative amount (%) of related substance C after storage of 60° C./2 W: 0.16%
